Measurements reported in PMC7377239, “Cardiovascular Effects of Polychlorinated Biphenyls and Their Major Metabolites” (Environmental Health Perspectives, 2020).
Like-named read-outs stand apart in the source and are kept apart here.

Columns and labels:
[1] = system: iCell endothelial cells (human iPSC-derived ECs); experiment: Tube formation (tubulogenesis) assay in iCell endothelial cells, 18 h; assay type: cell-based; details: Homo sapiens, Endothelial cell, iPSC-EC; for activity at 0.1 µM: 0.10 µM; for minimal effective concentration: 100.00 = highest concentration tested
Procedure: The culture conditions of iCell®-endothelial cells were as reported elsewhere ([Iwata et al. 2017]). Briefly, T75 flasks were coated with a fibronectin solution ( 3 μg/cm^2 ) followed by incubation for 1–2 h. Cells were thawed for 3 min in a 37°C water bath. Thawed cells were added to maintenance medium made of VascuLife VEGF Medium Complete Kit, excluding the supplied FBS, and iCell® Endothelial Cells Medium Supplement. The final formulation of the maintenance medium is detailed in ([Iwata et al. 2017]). The aliquoted fibronectin solution was aspirated from the T75 flasks, and cells were seeded at 1.0×10^4 cells/cm^2 . Cells were maintained at 37°C and 5% CO2 with media changes occurring every 2 d and passaged every 3–4 d using TrypLE™ Express. All experiments were conducted on cells between passages 1 and 5.
Tube formation assays were performed on Geltrex™ LDEV-free reduced growth factor basement membrane using both iCell®-endothelial cells and HUVECs in 384-well format exactly as detailed in Iwata et al. ([2017]). Negative controls included media-only and vehicle control (i.e., 0.5% vol/vol DMSO in cell culture media) wells. Positive assay controls were consistent with previously published reports ([Iwata et al. 2017]) and included TAB ( 50μM ) as a cytotoxic control, and nocodazole ( 0.01–1μM ), suramin ( 0.5–50μM ), histamine ( 0.1–100μM ), and chloroquine ( 1–500μM ) as chemicals associated with specific effects on ECs. Each test chemical was screened in triplicate for each concentration. Briefly, for iCell®-endothelial cells, starvation media consisted of VascuLife® basal medium with 4 mM L-glutamine LifeFactor and 0.1% iCell®-endothelial cells medium supplement. To counter dilution effects, a 2× concentration of the HUVEC maintenance medium supplemented with additional VEGF was created (EGM™-2 BulletKits™ at 2× concentration; also the VEGF component was replaced with 12.5 ng/mL VEGF). Geltrex™ LDEV-free reduced growth factor basement membrane was thawed overnight and dispensed into 384-well plates ( 10μL/well ) with tapping and rotating to evenly coat. The plates were incubated for 1 h in a cell culture incubator at 37°C and 5% CO2 . A 2× PCB plate (containing all of the PCBs and metabolites in dose–response) was prepared in basal media and added, 25μL per well, to the Geltrex™ coated plates. On separate plates, cells were seeded 7,500 (iPSC- ECs) or 3,500 (HUVEC) cells/well. Cells were exposed to chemicals overnight at 37°C and 5% CO2 and stained with 3× concentration of calcein AM ( 25μL /well, 6μmol/L ) for 15 min before imaging. Images were captured at 4× magnification with the FITC filter (calcein AM). Images were analyzed with the angiogenesis module software within MetaXpress™ (Molecular Devices).
(§1) Phenotypic responses were quantitatively assessed using concentration–response modeling as detailed elsewhere ([Sirenko et al. 2017]). Briefly, phenotypic readouts were normalized to vehicle controls and fit to a four-parameter logistic model in R studio software (version 3.1.1; R Development Core Team). Following EPA guidance on dose–response modeling, a cutoff of one standard deviation across means of vehicle control (i.e., 0.5% vol/vol DMSO in cell culture media) wells was applied to determine the point-of-departure (POD) values ([U.S. EPA 2012]). In the absence of a concentration–response, the highest tested concentration (i.e., 100μM ) was assigned as “no observable adverse effect level.” The concentration–response assessment R script, as well as templates for vehicle and concentration–response data, are available as a supplement to Sirenko et al. ([2017]). The ability of physicochemical properties to predict differences in PODs were evaluated by multiregression and mixed-effects modeling using R.

HUVECs = experiment: High-content imaging cytotoxicity in HUVECs, 24 h; assay type: cell-based, human; details: Homo sapiens, HUVEC, 24 h, HUVECs; for viability at 0.01 µM / activity at 0.01 µM: concentration 0.01 µM; for viability at 0.01 µM / activity at 0.01 µM / viability at 0.1 µM / activity at 0.1 µM / viability at 1 µM / activity at 1 µM / viability at 10 µM / activity at 10 µM / viability at 100 µM / activity at 100 µM: 0.00 µM = 100.00; for viability at 0.1 µM / activity at 0.1 µM: concentration 0.10 µM; for viability at 1 µM / activity at 1 µM: concentration 1.00 µM; for viability at 10 µM / activity at 10 µM: concentration 10.00 µM; for viability at 100 µM / activity at 100 µM: concentration 100.00 µM; for minimal effective concentration: MAX 100.00
Procedure: Similar to the cultivation of iCell®-endothelial cells, HUVEC maintenance and experimentation are detailed elsewhere ([Iwata et al. 2017]). Briefly, HUVECs were thawed, seeded, and grown in T75 tissue culture flasks in Medium 199 with EGM™-2 BulletKits™. HUVECs were incubated at regular cell culture conditions, 37°C and 5% CO2 , and passaged every 2–3 d using TrypLE™ Express. To ensure adequate endothelial function, experiments were performed with cells between passages 1 and 5.
Cytotoxicity was assessed in parallel experiments. For iCell®-endothelial cells, 384-well plates were coated with a 30μg/mL fibronectin solution ( 10μL/well ) and incubated for 2 h at RT. iCell®-endothelial cells were dissociated with TrypLE™ Express and prepared into a solution to achieve 750 cells per well and 50μL of total volume. The fibronectin solution was removed from the 384-well plate, and cells were plated. For HUVECs, similar dissociation and the same cell density were used for plating with the exclusion of the fibronectin solution. Cells were incubated at 37°C and 5% CO2 until a monolayer was formed, typically 3–5 d. 2×PCB plates were created with the requisite maintenance medium. Before treatment, the medium in the wells was exchanged to 25μL/well of fresh maintenance medium. 2×PCB chemical solutions ( […] ) were added. After 24 h incubation at 37°C and 5% CO2 , cells were stained with Hoechst 33342, MitoTracker™ Orange, and calcein AM for 20 min before replacing the staining media with FluoroBright DMEM. Cell culture plates were imaged using the ImageXpress® Micro Confocal high-content imaging system (Molecular Devices). Images were acquired at 10× magnification with DAPI, TRITC, or FITC filter (Hoechst 33342, MitoTracker™, or calcein AM, respectively). The multiwavelength cell scoring applications module in MetaXpress™ (Molecular Devices) was used to analyze the images.
as §1

[2] = 0.00 µM = 100.00, read-out: endo.mtl.18hr
[3] = 0.00 µM = 100.00, read-out: endo.tlps.18hr
[4] = 0.00 µM = 100.00, read-out: endo.tta.18hr
[5] = 0.00 µM = 100.00, read-out: endo.ttl.18hr
[6] = 24 hr, read-out: huvec.cyto.24hr
[7] = 24 hr, read-out: huvec.mito.24hr
[8] = 24 hr, read-out: huvec.mitoint.24hr
[9] = 24 hr, read-out: huvec.nma.24hr
[10] = 24 hrs, read-out: huvec.tc.24hrs

Question: How did the activity at 0.01 µM [1, 2] turn out when `Clc1ccc(Cl)c(-c2c(Cl)ccc(Cl)c2Cl)c1` [PCB95] was run?
Answer: 111%

Question: What about the activity at 0.01 µM [1, 3] of the same molecule?
Answer: 84.5%

Question: And the activity at 0.01 µM [1, 4]?
Answer: 111%

Question: What about the activity at 0.01 µM [1, 5] of the same molecule?
Answer: 116%

Question: What about the activity at 0.1 µM [1, 2] of the same molecule?
Answer: 103%

Question: And the activity at 0.1 µM [1, 3]?
Answer: 85.8%

Question: And the activity at 0.1 µM [1, 4]?
Answer: 99%

Question: What about the activity at 0.1 µM [1, 5] of the same molecule?
Answer: 106%

Question: And the activity at 1 µM [1, 2]?
Answer: 108%

Question: What about the activity at 1 µM [1, 3] of the same molecule?
Answer: 115%

Question: What about the activity at 1 µM [1, 4] of the same molecule?
Answer: 97.2%

Question: And the activity at 1 µM [1, 5]?
Answer: 104%

Question: And the activity at 10 µM [1, 2]?
Answer: 109%

Question: And the activity at 10 µM [1, 3]?
Answer: 119%

Question: What about the activity at 10 µM [1, 4] of the same molecule?
Answer: 113%

Question: What about the activity at 10 µM [1, 5] of the same molecule?
Answer: 123%

Question: What about the activity at 100 µM [1, 2] of the same molecule?
Answer: 47%

Question: What about the activity at 100 µM [1, 3] of the same molecule?
Answer: 16%

Question: What about the activity at 100 µM [1, 4] of the same molecule?
Answer: 8.76%

Question: What about the activity at 100 µM [1, 5] of the same molecule?
Answer: 11%

Question: What about the minimal effective concentration ([1]; read-out: endo.mtl.18hr POD) of the same molecule?
Answer: 48.6 µM

Question: What about the minimal effective concentration ([1]; read-out: endo.tlps.18hr POD) of the same molecule?
Answer: 53.9 µM

Question: And the minimal effective concentration ([1]; read-out: endo.tta.18hr POD)?
Answer: 48.7 µM

Question: What about the minimal effective concentration ([1]; read-out: endo.ttl.18hr POD) of the same molecule?
Answer: 55.7 µM

Question: And the viability at 0.01 µM (HUVECs; [6])?
Answer: 81%

Question: What about the activity at 0.01 µM (HUVECs; [7]) of the same molecule?
Answer: 79.4%

Question: And the activity at 0.01 µM (HUVECs; [8])?
Answer: 106%

Question: What about the activity at 0.01 µM (HUVECs; [9]) of the same molecule?
Answer: 97.4%

Question: What about the viability at 0.1 µM (HUVECs; [6]) of the same molecule?
Answer: 85.5%

Question: And the activity at 0.1 µM (HUVECs; [7])?
Answer: 84.2%

Question: And the activity at 0.1 µM (HUVECs; [8])?
Answer: 109%

Question: And the activity at 0.1 µM (HUVECs; [9])?
Answer: 98.6%

Question: What about the viability at 1 µM (HUVECs; [6]) of the same molecule?
Answer: 94.8%

Question: And the activity at 1 µM (HUVECs; [7])?
Answer: 93.4%

Question: And the activity at 1 µM (HUVECs; [8])?
Answer: 106%

Question: And the activity at 1 µM (HUVECs; [9])?
Answer: 98.7%

Question: What about the viability at 10 µM (HUVECs; [6]) of the same molecule?
Answer: 70.3%

Question: What about the activity at 10 µM (HUVECs; [7]) of the same molecule?
Answer: 63.8%

Question: What about the activity at 10 µM (HUVECs; [8]) of the same molecule?
Answer: 76.7%

Question: And the activity at 10 µM (HUVECs; [9])?
Answer: 86.4%

Question: And the viability at 100 µM (HUVECs; [6])?
Answer: 64.5%

Question: What about the activity at 100 µM (HUVECs; [7]) of the same molecule?
Answer: 50.7%

Question: And the activity at 100 µM (HUVECs; [8])?
Answer: 18.7%

Question: And the activity at 100 µM (HUVECs; [9])?
Answer: 56.5%

Question: What about the minimal effective concentration (HUVECs; 24 hr, read-out: huvec.cyto.24hr POD) of the same molecule?
Answer: 0.01 µM

Question: And the minimal effective concentration (HUVECs; 24 hr, read-out: huvec.mito.24hr POD)?
Answer: 0.022 µM

Question: What about the minimal effective concentration (HUVECs; 24 hr, read-out: huvec.mitoint.24hr POD) of the same molecule?
Answer: 7.41 µM

Question: What about the minimal effective concentration (HUVECs; 24 hr, read-out: huvec.nma.24hr POD) of the same molecule?
Answer: 1.93 µM

Question: And the viability at 0.01 µM (HUVECs; [10])?
Answer: 81%

Question: And the viability at 0.1 µM (HUVECs; [10])?
Answer: 85.5%

Question: What about the viability at 1 µM (HUVECs; [10]) of the same molecule?
Answer: 94.8%

Question: And the viability at 10 µM (HUVECs; [10])?
Answer: 70.3%

Question: And the viability at 100 µM (HUVECs; [10])?
Answer: 64.5%

Question: And the minimal effective concentration (HUVECs; 24 hrs, read-out: huvec.tc.24hrs POD)?
Answer: 0.01 µM
